Columns and labels:
[1] = tested on: N-cadherin; test: In vitro ε-cleavage assay, membranes from mouse fibroblasts or N2a cell cultures; type: biochemical; set-up: dose or concentration left out as unconfirmed; conditions: cultures incubated 16 hours with L-685,458; membranes 37° C. 2 hours
Description: In vitro γ-secretase-like ε-cleavage assay. Cells were washed in PBS, resuspended in 1 ml of 4° C. hypotonic buffer (10 mM MOPS, pH 7.0, 10 mM KCl) and homogenized on ice. A post-nuclear supernatant was prepared by centrifugation at 1000×g for 15 minutes at 4° C. Crude membranes were isolated from the post-nuclear supernatant by centrifugation at 16,000×g for 40 minutes at 4° C. The membranes were then resuspended in […] of assay buffer (150 mM sodium citrate, pH 6.4, 1× Complete protease inhibitor cocktail), and incubated at 37° C. for 2 hours. Samples were either analyzed directly by WB or separated into pellet (P100) and supernatant (S100) fractions by ultracentrifugation for 1 hour at 100,000×g at 4° C. The S100 and P100 fractions were then analyzed by WB.
To detect the product of the PS1-dependent cleavage of N-cadherin, an in vitro assay that uses incubation of membrane fractions to detect the ICD product of the E-cleavage of APP was used. (Gu et al. (2001) J. Biol. Chem. 276:35235-35238; McLendon et al. (2000) FASEB J. 14:2383-2386). […]

[2] = target: T1, CBP/CREB complex (Mus musculus, UniProt P45481); test: Electrophoretic mobility shift assay, CREB probe; type: biochemical; conditions: nuclear extract from cells transfected with 0.2 μg and 0.5 μg pN-Cad/CTF2, FIG. 11C lanes 6-8
T1 construct: full length mouse CBP inserted into vector pRc/RSV; expressed in transfected cells; host or cells: L cells transfected with mouse CBP (pRc/RSV), without or with 0.2 or 0.5 µg pN-Cad/CTF2; nuclear extract
T1 sequence (P45481 whole entry, one chain of several): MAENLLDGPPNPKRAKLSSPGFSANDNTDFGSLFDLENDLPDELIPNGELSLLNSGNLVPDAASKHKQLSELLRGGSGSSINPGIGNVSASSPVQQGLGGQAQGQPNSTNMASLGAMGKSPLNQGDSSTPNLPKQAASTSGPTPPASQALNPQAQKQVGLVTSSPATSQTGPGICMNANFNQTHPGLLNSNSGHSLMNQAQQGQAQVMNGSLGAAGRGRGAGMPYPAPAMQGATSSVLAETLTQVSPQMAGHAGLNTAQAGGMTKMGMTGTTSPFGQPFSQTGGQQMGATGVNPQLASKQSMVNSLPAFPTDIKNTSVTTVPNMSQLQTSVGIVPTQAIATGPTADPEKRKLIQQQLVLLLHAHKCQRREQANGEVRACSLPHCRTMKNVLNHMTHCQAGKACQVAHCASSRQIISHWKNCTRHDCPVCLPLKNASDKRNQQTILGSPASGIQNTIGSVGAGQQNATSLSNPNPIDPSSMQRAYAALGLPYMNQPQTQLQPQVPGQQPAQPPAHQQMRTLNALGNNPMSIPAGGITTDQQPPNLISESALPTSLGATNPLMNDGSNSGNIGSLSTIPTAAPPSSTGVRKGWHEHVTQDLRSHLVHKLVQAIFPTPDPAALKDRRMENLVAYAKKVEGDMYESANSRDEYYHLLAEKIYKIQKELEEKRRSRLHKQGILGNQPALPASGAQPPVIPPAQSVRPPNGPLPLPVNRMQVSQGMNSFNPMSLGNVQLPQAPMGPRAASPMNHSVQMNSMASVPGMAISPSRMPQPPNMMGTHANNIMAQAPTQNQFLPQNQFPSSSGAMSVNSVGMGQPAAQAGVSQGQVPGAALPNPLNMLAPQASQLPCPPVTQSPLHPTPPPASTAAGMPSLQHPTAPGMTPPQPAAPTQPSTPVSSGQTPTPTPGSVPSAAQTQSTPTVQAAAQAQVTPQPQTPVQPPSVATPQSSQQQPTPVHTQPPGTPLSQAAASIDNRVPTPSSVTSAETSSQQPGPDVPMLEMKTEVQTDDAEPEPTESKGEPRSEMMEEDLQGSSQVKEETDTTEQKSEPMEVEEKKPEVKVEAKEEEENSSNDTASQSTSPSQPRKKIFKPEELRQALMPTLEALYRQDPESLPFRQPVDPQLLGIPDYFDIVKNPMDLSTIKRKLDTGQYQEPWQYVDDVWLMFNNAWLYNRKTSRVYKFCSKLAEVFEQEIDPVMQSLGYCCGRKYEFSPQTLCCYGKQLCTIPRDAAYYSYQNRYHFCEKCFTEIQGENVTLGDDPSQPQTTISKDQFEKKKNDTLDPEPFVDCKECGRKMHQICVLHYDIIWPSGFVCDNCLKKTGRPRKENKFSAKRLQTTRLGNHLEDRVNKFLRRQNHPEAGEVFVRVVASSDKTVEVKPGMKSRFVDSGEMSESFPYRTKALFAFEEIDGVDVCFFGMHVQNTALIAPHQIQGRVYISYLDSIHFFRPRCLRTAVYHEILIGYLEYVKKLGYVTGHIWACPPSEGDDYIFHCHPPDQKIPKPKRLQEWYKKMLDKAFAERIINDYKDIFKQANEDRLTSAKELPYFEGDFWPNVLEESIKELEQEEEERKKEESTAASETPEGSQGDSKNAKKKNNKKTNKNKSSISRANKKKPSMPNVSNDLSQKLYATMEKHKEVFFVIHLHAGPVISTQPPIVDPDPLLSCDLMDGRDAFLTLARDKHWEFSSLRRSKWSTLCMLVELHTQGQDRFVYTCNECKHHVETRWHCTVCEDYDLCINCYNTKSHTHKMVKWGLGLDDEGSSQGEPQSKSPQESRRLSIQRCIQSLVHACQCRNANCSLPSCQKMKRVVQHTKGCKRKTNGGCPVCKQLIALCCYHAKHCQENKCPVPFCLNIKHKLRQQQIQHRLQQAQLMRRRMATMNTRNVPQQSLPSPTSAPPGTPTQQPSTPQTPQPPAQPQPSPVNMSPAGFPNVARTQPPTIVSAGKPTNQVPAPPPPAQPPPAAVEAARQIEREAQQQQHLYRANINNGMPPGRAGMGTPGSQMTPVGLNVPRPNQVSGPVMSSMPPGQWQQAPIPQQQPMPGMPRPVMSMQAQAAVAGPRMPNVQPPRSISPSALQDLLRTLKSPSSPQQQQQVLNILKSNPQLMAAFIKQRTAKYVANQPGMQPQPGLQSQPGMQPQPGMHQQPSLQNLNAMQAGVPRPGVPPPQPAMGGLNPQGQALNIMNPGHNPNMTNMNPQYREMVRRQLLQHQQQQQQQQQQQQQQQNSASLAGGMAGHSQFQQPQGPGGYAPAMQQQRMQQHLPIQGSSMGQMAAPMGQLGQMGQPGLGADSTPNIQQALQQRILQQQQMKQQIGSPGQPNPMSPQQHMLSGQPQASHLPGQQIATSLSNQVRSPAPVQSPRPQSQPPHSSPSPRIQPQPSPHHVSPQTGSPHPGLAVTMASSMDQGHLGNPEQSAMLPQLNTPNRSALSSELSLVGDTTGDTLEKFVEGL
Description: Electrophoresis mobility shift assay (EMSA). Nuclear extract from CBP-transfected L cells were prepared using the extraction kit N-XTRACT (Sigma) according to manufacturer's instructions. Ten microgram of nuclear extract was used for EMSA performed according to manufacturer's instructions using biotinylated double-stranded oligonucleotide probes containing DNA-binding motifs for CREB or MEF-1 (Panomics). Probes are as follow: CREB, 5′-[…]-3′ (SEQ ID NO: 17); MEF-1,5′-[…]-3′ (SEQ ID NO: 18). Reaction products were separated on 6% polyacrylamide gels in cold TBE buffer (50 mM Tris-HCl, 45 mM Boric acid, 0.5 mM EDTA), transferred to nylon membranes (Immobilon-Ny+, Millipore) and bound probes were immobilized for 30 minutes at 85° C. and visualized by chemiluminescence using streptavidin-HRP conjugate. For antibody supershift analysis, nuclear extract was incubated for 3 hours at 4° C. with […] of 1 B6 antibody prior to probe addition. Where indicated, nuclear extract ([…]) was immunoprecipitated with A-22 antibody ([…]) and protein A-agarose in EBC buffer (50 mM Tris, pH 8, 120 mM NaCl, 0.5% NP40, 1× Complete protease inhibitor cocktail).

Row | Molecule | soluble 35 kDa peptide N-Cad/CTF2 [1] | formation of a CBP/CREB complex on CRE-containing DNA templates [2]
1 | CC(C)C[C@H](NC(=O)[C@H](Cc1ccccc1)C[C@@H](O)[C@H](Cc1ccccc1)NC(=O)OC(C)(C)C)C(=O)N[C@@H](Cc1ccccc1)C(N)=O [L-685,458] | completely absent | 
2 | N-Cad/CTF2: chicken cytoplasmic domain of N-cadherin (N-Cad/CTF2) inserted into vector pECE, expressed in L cells (protein) KRRDKERQAKQLLIDPEDDVRDNILKYDEEGGGEEDQDYDLSQLQQPDTVEPDAIKPVGIRRLDERPIHAEPQYPVRSAAPHPGDIGDFINEGLKAADNDPTAPPYDSLLVFDYEGSGSTAGSLSSLNSSSSGGEQDYDYLNDWGPRFKKLADMYGGGDD |  | defective in their ability to promote formation of a CBP/CREB complex

Source: US7884067B2, “Peptides derived from cadherin and methods of use thereof” (Mount Sinai School of Medicine of New York University, priority 2001, dated 2011)
